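1) Cells in 96-well plates. 2) Compound, 48 h, 5 concentrations. 3) Linear interpolation between surrounding doses. 4) Unreached endpoint = highest concentration. TGI denotes the concentration required for complete inhibition of growth.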
Key:
Assay in all cases: growth of human tumour cells (NCI), 48 h
IGROV1 ovarian = system: IGROV1 ovarian
SW-620 colon = system: SW-620 colon
HOP-92 NSCLC = system: HOP-92 NSCLC
COLO 205 colon = system: COLO 205 colon
K-562 leukemia = system: K-562 leukemia
OVCAR-4 ovarian = system: OVCAR-4 ovarian
OVCAR-8 ovarian = system: OVCAR-8 ovarian
SK-MEL-5 melanoma = system: SK-MEL-5 melanoma
CAKI-1 renal = system: CAKI-1 renal
SN12C renal = system: SN12C renal
U251 CNS = system: U251 CNS
UO-31 renal = system: UO-31 renal
RXF 393 renal = system: RXF 393 renal
NCI-H226 lung = system: NCI-H226 lung
EKVX NSCLC = system: EKVX NSCLC
HL-60(TB) leukemia = system: HL-60(TB) leukemia
DLD-1 colon = system: DLD-1 colon
UACC-257 melanoma = system: UACC-257 melanoma
SK-MEL-28 melanoma = system: SK-MEL-28 melanoma
HOP-18 NSCLC = system: HOP-18 NSCLC
MALME-3M melanoma = system: MALME-3M melanoma
SNB-78 CNS = system: SNB-78 CNS
HT29 colon = system: HT29 colon
SK-OV-3 ovarian = system: SK-OV-3 ovarian
UACC-62 melanoma = system: UACC-62 melanoma
HCT-15 colon = system: HCT-15 colon
786-0 renal = system: 786-0 renal
KM20L2 colon = system: KM20L2 colon
M19-MEL melanoma = system: M19-MEL melanoma
MOLT-4 leukemia = system: MOLT-4 leukemia
CCRF-CEM leukemia = system: CCRF-CEM leukemia
SF-295 CNS = system: SF-295 CNS
HCC-2998 colon = system: HCC-2998 colon
SNB-75 CNS = system: SNB-75 CNS
HOP-62 NSCLC = system: HOP-62 NSCLC
RXF-631 renal = system: RXF-631 renal
SK-MEL-2 melanoma = system: SK-MEL-2 melanoma
RPMI-8226 leukemia = system: RPMI-8226 leukemia
ACHN renal = system: ACHN renal
DMS 273 small cell lung = system: DMS 273 small cell lung
DMS 114 small cell lung = system: DMS 114 small cell lung
OVCAR-5 ovarian = system: OVCAR-5 ovarian
NCI-H460 lung = system: NCI-H460 lung
M14 melanoma = system: M14 melanoma
SNB-19 CNS = system: SNB-19 CNS
XF 498 CNS = system: XF 498 CNS
HCT-116 colon = system: HCT-116 colon
KM12 colon = system: KM12 colon
TK-10 renal = system: TK-10 renal
LXFL 529 NSCLC = system: LXFL 529 NSCLC
LOX IMVI melanoma = system: LOX IMVI melanoma
A549 NSCLC = system: A549 NSCLC
OVCAR-3 ovarian = system: OVCAR-3 ovarian
SF-539 CNS = system: SF-539 CNS
A498 renal = system: A498 renal
SR leukemia = system: SR leukemia
NCI-H23 lung = system: NCI-H23 lung

Measured: TGI

C[Si](C)(C)CC(N)=O
not listed: SF-539 CNS | A498 renal | SR leukemia | NCI-H23 lung
> 100 µM: all other assays above

CC(=O)N(C)C=C1C(=O)N(C)C(=O)N(C)C1=O
not listed: IGROV1 ovarian | COLO 205 colon | SNB-78 CNS | SK-OV-3 ovarian | HOP-62 NSCLC
> 100 µM: all other assays above

— PubChem BioAssay (NCI)
